This note sets out measurements from patent publication US5422353A, “Tetrahydropyridine derivatives” (Boehringer Ingelheim KG, priority 1988, dated 1995).

As a reminder, the pKi is −log10 of the Ki, conventionally taken in molar units.

pKi: −log10 of the molar value.

The test system of one assay is conscious rabbit. As to the kind of experiment: arousal reaction in the EEG (electroencephalograph) of a conscious rabbit. The format is in vivo.
The next assay deals with muscarinic receptors. As to the kind of experiment: Receptor binding studies (radioligand L(+)cis-[2-methyl-3H]-N,N,N-trimethyl-1,3-dioxolan-4-methanammonium-iodide, NET-647). Particulars: cerebral cortex (rat); radioligand NET-647; tested as maleate (MA) or oxalate (OX) salt. The procedure: The compounds of formulae I and Ia have valuable pharmacological properties. Thus, in bonding studies, they show affinities with muscarinic receptors and muscarbin-agonistic GTP-shifts (GTP=guanosintriphosphate). (Birdshall, N. I. M., E. C. Hulme and J. M. Stockton 1984 in T.I.P.S. Supplement, Proc. Internat. Symposium on Subtypes of Muscarinic Receptors, Ed. Hirschowitz, Hammer, Giacchetti, Keirns, Levine; Elsevier p. 4-8).
The receptor binding studies were carried out according to: A. Closse, H. Bittiger, D. Langenegger and A. Wanner, Naunyn-Schmiedeberg's Arch. Pharmacol. 335, 372-377 (1987).
Receptor binding studies
L(+)cis-[2-methyl-^3 H]-N,N,N-trimethyl-
1,3-dioxolan-4-methanammonium-iodide
NET-647, Messrs. NEN (New England
Organ: Cerebral cortex (rat)

Regarding `CCOCC1=CCN(C)CC1` [Example 2, 4-Ethoxymethyl-1-methyl-1,2,3,6-tetrahydropyridine], the “arousal reaction typical of cholinomimetics in the EEG” value with conscious rabbit (1 mg/kg and 3 mg/kg i.v.) is “exhibit an arousal reaction typical of cholinomimetics”. Further, at muscarinic receptors, the pKi was 6.68. For `CCSCC1=CCN(C)CC1` [Example 4, 4-[(Ethylthio)methyl]-1-methyl-1,2,3,6-tetrahydropyridine], the pKi on muscarinic receptors is 8.08.

With `CCCOCC1=CCN(C)CC1` [Example 9, 1-Methyl-4-propoxymethyl-1,2,3,6-tetrahydropyridine], the pKi at muscarinic receptors was 6.85. Consider `CSCC1=CCN(C)CC1` [Example 13, 1-Methyl-4-[(methylthio)methyl]-1,2,3,6-tetrahydropyridine], for which the “arousal reaction typical of cholinomimetics in the EEG” value in the assay with conscious rabbit (0.1 mg/kg and 0.3 mg/kg i.v.) is recorded as “exhibit an arousal reaction typical of cholinomimetics”. Moreover, the pKi on muscarinic receptors is 7.82. With `COCCC1=CCN(C)CC1` [OX, 4-(methoxyethyl)-1-methyl-1,2,3,6-tetrahydropyridine], the pKi on muscarinic receptors was 5.41.
